A short description of assay [1]: Inhibition of chitin synthase isolated from Candida Albicans.
A further assay concerns Candida albicans. The experiment in a line: Percent inhibition rate of 100 ug/mL against chitin synthase isolated from Candida albicans.

Results on 24 molecules are retold here after ChEMBL document CHEMBL1133214, “Novel nikkomycin analogues: inhibitors of the fungal cell wall biosynthesis enzyme chitin synthase” (Bioorg Med Chem Lett, 2000).

≈ marks a conversion by molar mass, not a printed value.

One may read the IC50 as the concentration that gives 50% inhibition. Read a low IC50 as greater potency. Regarding `N[C@@H](CSc1ccc(O)cn1)C(=O)N[C@H](C(=O)O)[C@H]1O[C@@H](n2ccc(=O)[nH]c2=O)[C@H](O)C1O` (single isomer, unassigned), the IC50 in assay [1] was 36 µg/mL (≈ 74.5 µM). Besides, the Rate with Candida albicans was 73%. Turning to `N[C@@H](CSCc1ccccc1)C(=O)N[C@H](C(=O)O)[C@H]1O[C@@H](n2ccc(=O)[nH]c2=O)[C@H](O)C1O` (single isomer, unassigned), in the assay on Candida albicans, the Rate amounted to 78%. As to `N[C@@H](Cc1cccc2ccccc12)C(=O)N[C@H](C(=O)O)[C@H]1O[C@@H](n2ccc(=O)[nH]c2=O)[C@H](O)C1O` (single isomer, unassigned), in assay [1], the concentration for half-maximal inhibition (IC50) was 4.69 µg/mL (≈ 9.68 µM). Further, the Rate in the assay on Candida albicans was 99%. The molecule `CC(C)(SCc1ccc(O)cn1)[C@H](N)C(=O)N[C@H](C(=O)O)[C@H]1O[C@@H](n2ccc(=O)[nH]c2=O)[C@H](O)C1O` (single isomer, unassigned) yielded a Rate in the assay with Candida albicans of 58%. In assay [1], `N[C@@H](Cc1ccc2ccccc2c1)C(=O)N[C@H](C(=O)O)[C@H]1O[C@@H](n2ccc(=O)[nH]c2=O)[C@H](O)C1O` (single isomer, unassigned) yielded an IC50 of 6.43 µg/mL (≈ 13.3 µM). The molecule further displayed a Rate with Candida albicans of 96%. As for `CC(C)(SCc1ccc(O)cc1)[C@H](N)C(=O)N[C@H](C(=O)O)[C@H]1O[C@@H](n2ccc(=O)[nH]c2=O)[C@H](O)C1O` (single isomer, unassigned), the IC50 in assay [1] amounted to 5.89 µg/mL (≈ 11.2 µM). For the same molecule, in the assay with Candida albicans, the Rate came to 99%. `N[C@@H](Cc1ccc(O)cn1)C(=O)N[C@H](C(=O)O)[C@H]1O[C@@H](n2ccc(=O)[nH]c2=O)[C@H](O)C1O` (single isomer, unassigned): the Rate in the assay with Candida albicans is 34%.

Molecule `N[C@@H](CSc1ccc2ccccc2c1)C(=O)N[C@H](C(=O)O)[C@H]1O[C@@H](n2ccc(=O)[nH]c2=O)[C@H](O)C1O` (single isomer, unassigned) displayed a Rate in the assay on Candida albicans of 40%. `C[C@@H]([C@H](N)C(=O)N[C@H](C(=O)O)[C@H]1O[C@@H](n2ccc(=O)[nH]c2=O)[C@H](O)C1O)[C@H](O)c1ccc(O)cn1` (single isomer, unassigned) [NIKKOMYCIN] yielded an IC50 in assay [1] of 0.393 µg/mL (≈ 0.793 µM). In the case of `N[C@@H](CSc1ccc(C(=O)O)cn1)C(=O)N[C@H](C(=O)O)[C@H]1O[C@@H](n2ccc(=O)[nH]c2=O)[C@H](O)C1O` (single isomer, unassigned), the IC50 in assay [1] is 52.5 µg/mL (≈ 103 µM). In addition, the Rate in the assay with Candida albicans was 64%. Take `CC(C)(SCc1ccccc1O)[C@H](N)C(=O)N[C@H](C(=O)O)[C@H]1O[C@@H](n2ccc(=O)[nH]c2=O)[C@H](O)C1O` (single isomer, unassigned): the IC50 in assay [1] came out at 13.8 µg/mL (≈ 26.3 µM). In the assay on Candida albicans, this molecule registered a Rate of 88%. Molecule `N[C@@H](Cc1ccc(O)cc1)C(=O)N[C@H](C(=O)O)[C@H]1O[C@@H](n2ccc(=O)[nH]c2=O)[C@H](O)C1O` (single isomer, unassigned) gave an IC50 in assay [1] of 4.83 µg/mL (≈ 10.7 µM). In the assay on Candida albicans, this molecule gave a Rate of 99%. As to `N[C@@H](CSCC1CCCCC1)C(=O)N[C@H](C(=O)O)[C@H]1O[C@@H](n2ccc(=O)[nH]c2=O)[C@H](O)C1O` (single isomer, unassigned), in the assay with Candida albicans, the Rate was 67%.

For the molecule `N[C@@H](Cc1cc2ccccc2c2ccccc12)C(=O)N[C@H](C(=O)O)[C@H]1O[C@@H](n2ccc(=O)[nH]c2=O)[C@H](O)C1O` (single isomer, unassigned), in assay [1], the IC50 is 0.31 µg/mL (≈ 0.58 µM). The same molecule came in with a Rate in the assay with Candida albicans of 99%.

Molecule `CC(=O)NCSC[C@H](N)C(=O)N[C@H](C(=O)O)[C@H]1O[C@@H](n2ccc(=O)[nH]c2=O)[C@H](O)C1O` (single isomer, unassigned) registered a Rate with Candida albicans of 65%. `CC(C)(SCc1ccc2ccccc2c1)[C@H](N)C(=O)N[C@H](C(=O)O)[C@H]1O[C@@H](n2ccc(=O)[nH]c2=O)[C@H](O)C1O` (single isomer, unassigned) displayed a half-maximal inhibitory concentration (IC50) in assay [1] of 1.42 µg/mL (≈ 2.54 µM). Further, in the assay on Candida albicans, the Rate stood at 94%. In the assay with Candida albicans, `Nc1ccc(SC[C@H](N)C(=O)N[C@H](C(=O)O)[C@H]2O[C@@H](n3ccc(=O)[nH]c3=O)[C@H](O)C2O)nc1` (single isomer, unassigned) returned a Rate of 42%. In assay [1], `CC(C)(SCc1ccccc1)[C@H](N)C(=O)N[C@H](C(=O)O)[C@H]1O[C@@H](n2ccc(=O)[nH]c2=O)[C@H](O)C1O` (single isomer, unassigned) gave an IC50 of 9.83 µg/mL (≈ 19.3 µM). This molecule also displayed a Rate in the assay with Candida albicans of 97%. Turning to `CC(C)(SCc1cccc(O)c1)[C@H](N)C(=O)N[C@H](C(=O)O)[C@H]1O[C@@H](n2ccc(=O)[nH]c2=O)[C@H](O)C1O` (single isomer, unassigned), the IC50 in assay [1] is 4.91 µg/mL (≈ 9.36 µM). The Rate in the assay on Candida albicans was found to be 100%. `N[C@@H](CSc1ccccn1)C(=O)N[C@H](C(=O)O)[C@H]1O[C@@H](n2ccc(=O)[nH]c2=O)[C@H](O)C1O` (single isomer, unassigned) displayed a Rate in the assay with Candida albicans of 48%. Consider `CCCCCCCCCCCCSC[C@H](N)C(=O)N[C@H](C(=O)O)[C@H]1O[C@@H](n2ccc(=O)[nH]c2=O)[C@H](O)C1O` (single isomer, unassigned), for which, in the assay on Candida albicans, the Rate was found to be 64%.

Regarding `N[C@@H](CSc1ccc(O)cc1)C(=O)N[C@H](C(=O)O)[C@H]1O[C@@H](n2ccc(=O)[nH]c2=O)[C@H](O)C1O` (single isomer, unassigned), in the assay with Candida albicans, the Rate worked out at 44%. In assay [1], `N[C@@H](Cc1cccnc1)C(=O)N[C@H](C(=O)O)[C@H]1O[C@@H](n2ccc(=O)[nH]c2=O)[C@H](O)C1O` (single isomer, unassigned) returned an IC50 of 19.8 µg/mL (≈ 45.5 µM). The molecule also gave a Rate with Candida albicans of 82%.

In the assay with Candida albicans, `CC(C)=CCC/C(C)=C/CSC[C@H](N)C(=O)N[C@H](C(=O)O)[C@H]1O[C@@H](n2ccc(=O)[nH]c2=O)[C@H](O)C1O` (single isomer, unassigned) had a Rate of 22%.
